# From patent publication US8414989B2, “Cyclodextrin compositions, articles, and methods” (Cellresin Technologies, LLC, priority 2011, dated 2013)
# What was measured:
# Type in all cases: physicochemical
# [1] = Example 4: 1-MCP headspace release versus coated surface area and time; details: 4.0 wt-% 1-MCP/c/α-CD coating, 20 μL water
# Protocol: A 4.0 wt-% 1-MCP/c/α-CD blend was made according to the technique of Example 3. A rubber ink roller was used to deliver a coating having a nominal thickness of 0.3 μm to a 20 cm by 20 cm polyethylene extrusion coated paper sheet using the technique of Example 2. The coated sheet was cured according to the procedure of Example 2.
# Using a razor blade, 26 cm^2, 52 cm^2, and 78 cm^2 samples were cut from the coated portion of the sheet. Each sample was placed in a 250 mL serum bottle. The bottles were sealed with TEFLON® faced silicone septa. Then 20 μL of deionized water was injected into each bottle. […] Bottle headspace analysis was conducted according to the technique of Example 3 at 0.17 hours, 0.5 hours, 1 hour, 2 hours, 4 hours and 24 hours after the injection of water.
# [2] = Control Example A: dissociation of 1-MCP from supplied 1-MCP/c/α-CD powder as a function of added water; details: for Headspace concentration of 1-MCP: 0.1 g 1-MCP/c/α-CD powder, 250 mL bottle, shaken 1 hour, about 20 C
# Protocol: A sample of 1-MCP/c/α-CD powder was obtained (AgroFresh of Spring House, Pa.). According to the supplier's specification sheet, 1-MCP was 4.7 wt % of α-CD or 88.7 wt % 1-MCP complex based on a theoretical 1:1 molar ratio of 1-MCP to α-CD; this corresponds to a resulting headspace concentration of 8,600 ppm. A series of tests were conducted to measure the dissociation of 1-MCP from the supplied 1-MCP/c/α-CD as a function of added water. First, 0.1 g aliquots of the supplied 1-MCP/c/α-CD powder were added to each of 5, 250 mL bottles, which were then capped with TEFLON® faced septa. Varying amounts of water were added to the bottles by syringe, and then the bottles were mechanically shaken for one hour, followed by headspace measurement for 1-MCP according to the procedure of Example 3. The amounts of water added per 0.1 g of the supplied 1-MCP/c/α-CD complex, and the resulting headspace measurements after 1 hour at about 20 C, are shown in Table 6.
# A polynomial regression was used to calculate the dissociation at 100% RH in the headspace for the five samples of Table 6 (i.e., 4.3 milligrams water per 250 mL volume, see Example 8 for source and calculation of this information). The calculated amount of dissociated 1-MCP at 100% RH was 18 wt-%.
# [3] = Example 6: 1-MCP headspace release from PSA labels; details: 2.5 cm x 2.5 cm PSA label, 250 mL bottle; for Headspace concentration of 1-MCP, average: 50 μL water
# Protocol: A 100 mL quartz beaker was charged with 54 g of 2-isooctyl acrylate, 6 g of acrylic acid, and 0.60 g of 1-hydroxycyclohexyl phenyl ketone (IRGACURE® 184, Ciba Specialty Chemicals Corp. of Tarrytown, N.Y.). The beaker was equipped with a mechanical stirrer, and the contents were mixed for about 5 minutes while sparging with dry helium. Then the beaker was irradiated with a medium pressure mercury arc lamp operating at 79 watts per cm situated about 15 cm from the side of the beaker. The light was turned off when the contents of the flask were of a honey-like consistency, about 1.5 minutes. The beaker was further charged with 3.23 g of 1-MCP/c/α-CD, 0.89 g of IRGACURE® 184, 5.8 g of isooctyl acrylate, and 0.72 g of acrylic acid. The beaker contents were mixed until uniformly dispersed, about 5 minutes.
# About 4 mL of the mixture in the bottle was removed with a metered dropper and dispensed on 30.5 cm by 30.5 cm white paper labelstock, and drawn down using a metering rod (Meyer coating rod #30) having a delivered coating thickness of 25 microns. Then a 21.5 cm by 28 cm silicone coated polyester (PET) film sheet (120 μm thick (obtained from the 3M Company of St. Paul, Minn.) was placed over the coated labelstock, taking care not to entrain air bubbles. The coated and covered labelstock was cut into 10 cm by 20 cm rectangles using a paper cutter. The cut samples were passed by hand about 15 cm beneath a medium pressure mercury arc lamp operating at 79 watts per cm; multiple hand passes beneath the UV light or about 30 seconds under the lamp was used to cure the adhesive. The cured coated labelstock sheets were allowed to sit PET side up on a laboratory bench overnight.
# A paper cutter was used to cut six replicate 2.5 cm by 2.5 cm squares from the sheets. Because the UV cured coating composition is a pressure sensitive adhesive, or PSA, the 2.5 cm by 2.5 cm squares are termed “PSA labels.” Each PSA label, with the silicone coated PET still in place, was placed in a 250 mL serum bottle. Each bottle was sealed with a TEFLON® faced silicone septum. The headspace concentration of 1-MCP was measured after 1 hour following introduction of the PSA label into a bottle, using the technique of Example 3 except that 250 μL of gas was removed from the sample bottle for the analysis. 1-MCP was below the quantification limit of 0.01 ppm.
# Then 50 μL of deionized water was injected into each bottle. […] The sealed bottle headspace was analyzed at 10 minutes, 30 minutes, and 60 minutes, using the technique of Example 3. A final headspace sample was analyzed 16 hours after the injection of water. The data illustrate that 1-MCP was released from a PSA label into the headspace when exposed to water vapor (humidity) and that its concentration increases over time.
structure (smiles),measurement,setting,value
"CC1=CC1 [1-MCP, 1-methylcyclopropene]",Headspace concentration of 1-MCP,"[1]; 26 cm^2, 250 mL bottle, 0.17 hrs",0.25 ppm -v/v
same,Headspace concentration of 1-MCP,"[1]; 26 cm^2, 250 mL bottle, 0.5 hrs",1.5 ppm -v/v
same,Headspace concentration of 1-MCP,"[1]; 26 cm^2, 250 mL bottle, 1 hr",2.4 ppm -v/v
same,Headspace concentration of 1-MCP,"[1]; 26 cm^2, 250 mL bottle, 2 hrs",3.7 ppm -v/v
same,Headspace concentration of 1-MCP,"[1]; 26 cm^2, 250 mL bottle, 4 hrs",5.8 ppm -v/v
same,Headspace concentration of 1-MCP,"[1]; 26 cm^2, 250 mL bottle, 24 hrs",9.6 ppm -v/v
same,Headspace concentration of 1-MCP,"[1]; 52 cm^2, 250 mL bottle, 0.17 hrs",0.66 ppm - v/v
same,Headspace concentration of 1-MCP,"[1]; 52 cm^2, 250 mL bottle, 0.5 hrs",2.2 ppm - v/v
same,Headspace concentration of 1-MCP,"[1]; 52 cm^2, 250 mL bottle, 1 hr",4.2 ppm - v/v
same,Headspace concentration of 1-MCP,"[1]; 52 cm^2, 250 mL bottle, 2 hrs",7.0 ppm - v/v
same,Headspace concentration of 1-MCP,"[1]; 52 cm^2, 250 mL bottle, 4 hrs",9.9 ppm - v/v
same,Headspace concentration of 1-MCP,"[1]; 52 cm^2, 250 mL bottle, 24 hrs",16.1 ppm - v/v
same,Headspace concentration of 1-MCP,"[1]; 78 cm^2, 250 mL bottle, 0.17 hrs",1.7 ppm - v/v
same,Headspace concentration of 1-MCP,"[1]; 78 cm^2, 250 mL bottle, 0.5 hrs",3.4 ppm - v/v
same,Headspace concentration of 1-MCP,"[1]; 78 cm^2, 250 mL bottle, 1 hr",5.2 ppm - v/v
same,Headspace concentration of 1-MCP,"[1]; 78 cm^2, 250 mL bottle, 2 hrs",7.9 ppm - v/v
same,Headspace concentration of 1-MCP,"[1]; 78 cm^2, 250 mL bottle, 4 hrs",12.4 ppm - v/v
same,Headspace concentration of 1-MCP,"[1]; 78 cm^2, 250 mL bottle, 24 hrs",20.0 ppm - v/v
same,Headspace concentration of 1-MCP,[2]; 0.25 g H2O,"3,050 ppm (v/v)"
same,Headspace concentration of 1-MCP,[2]; 0.5 g H2O,"4,750 ppm (v/v)"
same,Headspace concentration of 1-MCP,[2]; 1.0 g H2O,"6,850 ppm (v/v)"
same,Headspace concentration of 1-MCP,[2]; 2.0 g H2O,"9,850 ppm (v/v)"
same,Headspace concentration of 1-MCP,[2]; 3.0 g H2O,"10,610 ppm (v/v)"
same,1-MCP dissociated from complex,[2]; 1.0 grams of water per 0.10 grams 1-MCP/c/α-CD,66%
same,calculated amount of dissociated 1-MCP at 100% RH,"[2]; polynomial regression of the five samples of Table 6, 4.3 milligrams water per 250 mL volume",18 wt-%
same,resulting headspace concentration corresponding to supplier's specification,"[2]; supplier's specification sheet 4.7 wt % 1-MCP, 0.1 g in 250 mL bottle","8,600 ppm"
same,"Headspace concentration of 1-MCP, average",[3]; 0.17 hours,0.01 ppm (v/v)
same,"Headspace concentration of 1-MCP, average",[3]; 0.5 hours,1.3 ppm (v/v)
same,"Headspace concentration of 1-MCP, average",[3]; 1 hour,3.6 ppm (v/v)
same,"Headspace concentration of 1-MCP, average",[3]; 16 hours,29.7 ppm (v/v)
same,Headspace concentration of 1-MCP,"[3]; no water, 1 hour, quantification limit",< 0.01 ppm
